{
  "source": "paper PMC3842171",
  "about": "(Bioorganic & medicinal chemistry letters, 2011)",
  "key": {"[1]": {"system": "HDAC1, HDAC3, and HDAC6", "assay": "Single-concentration isoform selectivity screen with Fluor de Lys kit", "format": "biochemical"}, "[2]": {"system": "HDAC activity (HeLa cell lysates)", "assay": "Fluor de Lys in vitro fluorescence HDAC activity assay using HeLa cell lysates", "format": "biochemical"}},
  "data": [
    {"compound": "CCCCC(CCCCC(=O)Nc1ccccc1)CC(=O)NO", "note": "(stereo not shown) [Compound 1a, C3-n-butyl SAHA]", "values": [
      {"measurement": "isoform preference in single-concentration screen", "setting": "[1]; 32 µM", "value": "preference for HDAC6 over HDAC3"}
    ]},
    {"compound": "O=C(CC(CCCCC(=O)Nc1ccccc1)c1ccccc1)NO", "note": "(stereo not shown) [Compound 1b]", "values": [
      {"measurement": "isoform preference in single-concentration screen", "setting": "[1]; 32 µM", "value": "preference for HDAC6 over HDAC3"}
    ]},
    {"compound": "CCC(CCCCC(=O)Nc1ccccc1)CC(=O)NO", "note": "(stereo not shown) [Compound 1c]", "values": [
      {"measurement": "fold decreased activity compared to the methyl analogue 1e", "setting": "[2]", "value": 91, "unit": "fold"},
      {"measurement": "isoform preference in single-concentration screen", "setting": "[1]; 32 µM", "value": "greater potency for HDAC6 over HDAC1 and HDAC3"}
    ]},
    {"compound": "C=CC(CCCCC(=O)Nc1ccccc1)CC(=O)NO", "note": "(stereo not shown) [Compound 1d]", "values": [
      {"measurement": "isoform preference in single-concentration screen", "setting": "[1]; 32 µM", "value": "preference for HDAC6 over HDAC3"}
    ]},
    {"compound": "CC(CCCCC(=O)Nc1ccccc1)CC(=O)NO", "note": "(stereo not shown) [Compound 1e]", "values": [
      {"measurement": "fold less potent than SAHA", "setting": "[2]; IC50 ratio versus SAHA", "value": 4, "unit": "fold"},
      {"measurement": "isoform preference in single-concentration screen", "setting": "[1]; 375 nM", "value": "slight preference for HDAC1 over HDAC3 and HDAC6"}
    ]}
  ]
}
